One assay relates to NCI-H1048 cells. The experiment in a line: NCI-H1048 cell proliferation assay (CTG assay). Type of assay: cell-based. The note with it: Homo sapiens, 120 hours, read-out: CTG cellular assay_H1048: IC50. Here is the method:
NCI-H1048 Cell Proliferation Assay (CTG Assay) The following is an example of an assay that can be used to determine the anti-proliferative activity of Wee1 PROTACs in a small cell lung cancer cell line, NCI-H1048 (ATCC Cat #CRL-5853). This cell line was cultured in RPMI-1640 medium supplemented with 10% FBS. About 1,200 NCI-H1048 cells in 50 μL of culture medium were seeded into a 384-well plate (Cat #3764, Corning), pre-spotted with compounds using the Echo 650 liquid handler (Beckman). The dose-response-curve (DRC) typically has 10-points with a highest concentration at 10 μM, and half-log diluted to as low as 0.316 nM, plus a DMSO control. Assay plates were incubated at 37° C. with 5% CO2 for 120 hours. After that, 20 μL of the CellTiter-Glo (CTG) Luminescent Cell Viability Assay Reagent (Cat #G7573, Promega) was added to each well and incubated at room temperature for 30 minutes. Luminescence was then measured with Pherastar microplate reader (BMG Labtech). All percentage of cell growth inhibition curves were processed using Collaborative Drug Discovery Vault.
Cell viability reads in compound-treated wells were normalized to that of DMSO control and expressed as Percent of Control (PoC, y). A four Parameter Logistic Model was used to determine the compound's EC50 and DC50, using the following equation: […]

The next assay has as its target HiBiT tagged Wee1 (Homo sapiens, UniProt P30291). Nature of the assay: Wee1 protein degradation assay (HiBiT assay). Particulars: engineered HT-1080 cells, 20 hours; for Dmax: maximum percentage of Wee1 degradation, read-out: HiBiT Wee1: Dmax. Type of assay: cell-based. In general terms: With HiBiT, luminescence reflects the tagged protein that the partner subunit can reach.

Sequence of HiBiT tagged Wee1 (P30291 whole entry): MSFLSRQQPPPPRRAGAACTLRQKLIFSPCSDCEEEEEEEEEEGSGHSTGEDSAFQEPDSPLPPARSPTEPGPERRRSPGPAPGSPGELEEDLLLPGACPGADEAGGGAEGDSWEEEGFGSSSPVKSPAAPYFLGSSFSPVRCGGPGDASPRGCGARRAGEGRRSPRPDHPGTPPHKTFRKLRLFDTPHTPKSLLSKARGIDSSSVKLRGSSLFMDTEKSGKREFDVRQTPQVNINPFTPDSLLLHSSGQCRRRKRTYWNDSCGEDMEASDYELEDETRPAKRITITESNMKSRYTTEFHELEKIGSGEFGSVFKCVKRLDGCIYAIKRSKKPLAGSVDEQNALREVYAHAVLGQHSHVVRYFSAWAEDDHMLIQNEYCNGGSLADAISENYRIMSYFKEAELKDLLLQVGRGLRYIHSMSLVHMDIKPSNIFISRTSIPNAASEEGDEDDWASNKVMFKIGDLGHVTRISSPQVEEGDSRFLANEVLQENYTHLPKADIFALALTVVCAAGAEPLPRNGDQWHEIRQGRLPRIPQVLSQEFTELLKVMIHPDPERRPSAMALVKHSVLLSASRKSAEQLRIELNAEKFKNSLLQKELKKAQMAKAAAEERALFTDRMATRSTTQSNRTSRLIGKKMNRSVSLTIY

Take `C=CCn1c(=O)c2cnc(Nc3ccc(N4CCC(CN5CCN(c6ccc(NC7CCC(=O)NC7=O)cc6F)CC5)CC4)cc3)nc2n1-c1ccc2c(n1)[C@@](O)(CC)CC2` (stereo partly shown) [Compound 119]: the IC50 – broadly, the point on the concentration scale where inhibition reaches its midpoint – in the assay on NCI-H1048 cells is at most 25 nM. In addition, at HiBiT tagged Wee1, the DC50 (as a rule, the midpoint of the concentration-degradation curve) is under 100 nM and the Dmax (as a rule, the greatest extent of degradation seen) was over 75%.
With `C=CCn1c(=O)c2cnc(Nc3ccc(N4CCC(N5CC6(CN(c7ccc(NC8CCC(=O)NC8=O)cc7F)C6)C5)CC4)cc3)nc2n1-c1cccc(C(C)(C)O)n1` (stereo not shown) [Compound 123], the 50% inhibitory concentration (IC50) in the assay with NCI-H1048 cells was at most 25 nM. For the same compound, on HiBiT tagged Wee1, the 50% degradation concentration (DC50) is under 100 nM and the Dmax is over 75%.
On the same counts, the results for `C=CCn1c(=O)c2cnc(Nc3ccc(N4CCN(CC5CCN(c6ccc(NC7CCC(=O)NC7=O)cc6F)CC5)CC4)c(F)c3)nc2n1-c1cccc(C(C)(C)O)n1` (stereo not shown) [Compound 125] are 25 to 100 nM, under 100 nM and over 75%.
On the same counts, the results for `C=CCn1c(=O)c2cnc(Nc3ccc(N4CCN(CC5CCN(c6ccc7c(N8CCC(=O)NC8=O)nn(C)c7c6)CC5)CC4)c(C)c3)nc2n1-c1ccc2c(n1)[C@@](O)(CC)CC2` [Compound 129] are at most 25 nM, under 100 nM and 50 to 75%.
On the same counts, the results for `C=CCn1c(=O)c2cnc(Nc3ccc(N4CCN(CC5CCN(c6ccc7c(N8CCC(=O)NC8=O)nn(C)c7c6)CC5)CC4)c(C)c3)nc2n1-c1ccc2c(n1)[C@](C)(O)CC2` [Compound 137] are at most 25 nM, under 100 nM and over 75%.
Regarding `C=CCn1c(=O)c2cnc(Nc3ccc(N4CCC(CN5CCN(c6cccc7c(C8CCC(=O)NC8=O)nn(C)c67)CC5)CC4)cc3)nc2n1-c1cccc(C(C)(C)O)n1` (stereo not shown) [Compound 144], in the assay on NCI-H1048 cells, the IC50 is at most 25 nM. Also, on HiBiT tagged Wee1, the DC50 was under 100 nM and the maximal degradation (Dmax) was over 75%.
Take `C=CCn1c(=O)c2cnc(Nc3ccc(N4CCC(N5CC6(CN(c7ccc(NC8CCC(=O)NC8=O)cc7F)C6)C5)CC4)cc3)nc2n1-c1ccc2c(n1)[C@@](O)(CC)CC2` (stereo partly shown) [Compound 156]: the IC50 in the assay with NCI-H1048 cells was at most 25 nM. The compound also gave a half-maximal degradation concentration (DC50) on HiBiT tagged Wee1 of under 100 nM.
On the same counts, the results for `C=CCn1c(=O)c2cnc(Nc3ccc(N4CCN(C5CCN(c6ccc(NC7CCC(=O)NC7=O)cc6F)CC5)CC4)cc3)nc2n1-c1ccc2c(n1)[C@@](O)(CC)CC2` (stereo partly shown) [Compound 157] are at most 25 nM and under 100 nM.
Consider `C=CCn1c(=O)c2cnc(Nc3ccc(N4CCN(CC5CCN(c6ccc(NC7CCC(=O)NC7=O)cc6F)CC5)CC4)cc3)nc2n1-c1ccc(=O)n(C(C)C)n1` (stereo not shown) [Compound 158], for which the IC50 in the assay on NCI-H1048 cells was at most 25 nM. Further, on HiBiT tagged Wee1, the DC50 is under 100 nM and the Dmax was over 75%.
In the case of `C=CCn1c(=O)c2cnc(Nc3ccc(N4CCN(CC5CCN(c6cc7c(cc6F)c(N6CCC(=O)NC6=O)nn7C)CC5)CC4)cc3)nc2n1-c1ccc2c(n1)[C@@](O)(CC)CC2` [Compound 161], in the assay on NCI-H1048 cells, the IC50 is at most 25 nM. For the same compound, at HiBiT tagged Wee1, the DC50 is under 100 nM and the Dmax was over 75%.
Regarding `C=CCn1c(=O)c2cnc(Nc3ccc(N4CCN(CC5CCN(c6ccc(NC7CCC(=O)NC7=O)cc6F)CC5)[C@@H](C)C4)cc3)nc2n1-c1ccc2c(n1)[C@@](O)(CC)CC2` (stereo partly shown) [Compound 162], the half-maximal inhibitory concentration (IC50) with NCI-H1048 cells is at most 25 nM. Besides, on HiBiT tagged Wee1, the DC50 was under 100 nM and the Dmax was over 75%.
The corresponding values for `C=CCn1c(=O)c2cnc(Nc3ccc(N4CCN(CC5CCN(c6ccc(NC7CCC(=O)NC7=O)cc6F)CC5)[C@H](C)C4)cc3)nc2n1-c1ccc2c(n1)[C@@](O)(CC)CC2` (stereo partly shown) [Compound 163] are at most 25 nM, under 100 nM and over 75%.
On to `C=CCn1c(=O)c2cnc(Nc3ccc(N4CCN(CC5(F)CCN(c6ccc(NC7CCC(=O)NC7=O)cc6F)CC5)CC4)cc3)nc2n1-c1ccc2c(n1)[C@@](O)(CC)CC2` (stereo partly shown) [Compound 166], for which the IC50 in the assay on NCI-H1048 cells is 25 to 100 nM. For the same compound, at HiBiT tagged Wee1, the half-maximal degradation concentration (DC50) was under 100 nM and the greatest degradation seen (Dmax) is over 75%.
Take `C=CCn1c(=O)c2cnc(Nc3ccc(N4CCN(C5CC6(C5)CN(c5ccc(NC7CCC(=O)NC7=O)cc5F)C6)CC4)cc3)nc2n1-c1ccc2c(n1)[C@@](O)(CC)CC2` (stereo partly shown) [Compound 168]: the IC50 with NCI-H1048 cells is at most 25 nM. In addition, on HiBiT tagged Wee1, the half-maximal degradation concentration (DC50) was under 100 nM and the Dmax was over 75%.
As for `C=CCn1c(=O)c2cnc(Nc3ccc(N4C[C@@H](C)N(CC5CCN(c6ccc(NC7CCC(=O)NC7=O)cc6F)CC5)[C@@H](C)C4)cc3)nc2n1-c1ccc2c(n1)[C@@](O)(CC)CC2` (stereo partly shown) [Compound 169], the 50% inhibitory concentration (IC50) in the assay on NCI-H1048 cells is at most 25 nM. In addition, at HiBiT tagged Wee1, the DC50 is under 100 nM and the greatest degradation seen (Dmax) is over 75%.
On the same counts, the results for `C=CCn1c(=O)c2cnc(Nc3ccc(N4CC5(CC(N6CCN(c7ccc(NC8CCC(=O)NC8=O)cc7F)CC6)C5)C4)cc3)nc2n1-c1ccc2c(n1)[C@@](O)(CC)CC2` (stereo partly shown) [Compound 173] are at most 25 nM, under 100 nM and over 75%.
On the same counts, the results for `C=CCn1c(=O)c2cnc(Nc3ccc(N4CCN(CC5CCN(c6ccc7c(N8CCC(=O)NC8=O)nn(C)c7c6)CC5)[C@H](C)C4)cc3)nc2n1-c1ccc2c(n1)[C@@](O)(CC)CC2` [Compound 174] are at most 25 nM, under 100 nM and 50 to 75%.
The corresponding values for `C=CCn1c(=O)c2cnc(Nc3ccc(N4CCN(CC5CCN(c6ccc(NC7CCC(=O)NC7=O)cc6Cl)CC5)CC4)cc3)nc2n1-c1ccc2c(n1)[C@@](O)(CC)CC2` (stereo partly shown) [Compound 176] are at most 25 nM, under 100 nM and over 75%.
`C=CCn1c(=O)c2cnc(Nc3ccc(N4CC5(CCN(C6CN(c7ccc(NC8CCC(=O)NC8=O)cc7F)C6)CC5)C4)cc3)nc2n1-c1ccc2c(n1)[C@@](O)(CC)CC2` (stereo partly shown) [Compound 179]: the IC50 in the assay on NCI-H1048 cells is at most 25 nM. In addition, at HiBiT tagged Wee1, the half-maximal degradation concentration (DC50) is under 100 nM and the Dmax is over 75%.
The corresponding values for `C=CCn1c(=O)c2cnc(Nc3ccc(N4CCN(CC5CCN(c6ncc(NC7CCC(=O)NC7=O)cc6F)CC5)CC4)cc3)nc2n1-c1ccc2c(n1)[C@@](O)(CC)CC2` (stereo partly shown) [Compound 180] are at most 25 nM, under 100 nM and over 75%.
On the same counts, the results for `C=CCn1c(=O)c2cnc(Nc3ccc(N4CCN(CC5CCN(c6ncc(NC7CCC(=O)NC7=O)cc6Cl)CC5)CC4)cc3)nc2n1-c1ccc2c(n1)[C@@](O)(CC)CC2` (stereo partly shown) [Compound 181] are at most 25 nM, under 100 nM and over 75%.
The corresponding values for `C=CCn1c(=O)c2cnc(Nc3ccc(N4CCN(C5CCN(c6ncc(NC7CCC(=O)NC7=O)cc6F)CC5)CC4)cc3)nc2n1-c1ccc2c(n1)[C@@](O)(CC)CC2` (stereo partly shown) [Compound 182] are at most 25 nM, under 100 nM and over 75%.
Turning to `C=CCn1c(=O)c2cnc(Nc3ccc(N4CCN(C5CC6(C5)CN(c5ncc(NC7CCC(=O)NC7=O)cc5F)C6)CC4)cc3)nc2n1-c1ccc2c(n1)[C@@](O)(CC)CC2` (stereo partly shown) [Compound 185], in the assay with NCI-H1048 cells, the half-maximal inhibitory concentration (IC50) was at most 25 nM. Further, on HiBiT tagged Wee1, the DC50 was under 100 nM and the Dmax was over 75%.
On the same counts, the results for `C=CCn1c(=O)c2cnc(Nc3ccc(N4CCN(CC5CCN(c6ccc(NC7CCC(=O)NC7=O)cc6F)CC5)CC4)nc3)nc2n1-c1ccc2c(n1)[C@@](O)(CC)CC2` (stereo partly shown) [Compound 187] are at most 25 nM, under 100 nM and over 75%.
`C=CCn1c(=O)c2cnc(Nc3ccc(N4CCN(CC5CCN(c6ncc(NC7CCC(=O)NC7=O)cc6F)CC5)[C@@H](C)C4)cc3)nc2n1-c1ccc2c(n1)[C@@](O)(CC)CC2` (stereo partly shown) [Compound 192]: in the assay on NCI-H1048 cells, the IC50 was at most 25 nM. Also, at HiBiT tagged Wee1, the DC50 is under 100 nM and the greatest degradation seen (Dmax) was over 75%.
Regarding `C=CCn1c(=O)c2cnc(Nc3ccc(N4CCN(CC5CCN(c6ncc(NC7CCC(=O)NC7=O)cc6F)CC5)[C@H](C)C4)cc3)nc2n1-c1ccc2c(n1)[C@@](O)(CC)CC2` (stereo partly shown) [Compound 193], the half-inhibitory concentration (IC50) in the assay on NCI-H1048 cells is at most 25 nM. Moreover, on HiBiT tagged Wee1, the DC50 was under 100 nM and the greatest degradation seen (Dmax) is over 75%.
On to `C=CCn1c(=O)c2cnc(Nc3ccc(N4CCN(CC5CCN(c6cc7c(cc6F)c(N6CCC(=O)NC6=O)nn7C)CC5)CC4)nc3)nc2n1-c1ccc2c(n1)[C@@](O)(CC)CC2` [Compound 194], for which, in the assay with NCI-H1048 cells, the IC50 was at most 25 nM. Besides, on HiBiT tagged Wee1, the half-maximal degradation concentration (DC50) is under 100 nM and the Dmax was over 75%.
On the same counts, the results for `C=CCn1c(=O)c2cnc(Nc3ccc(N4CCN(CC5CCN(c6cc7c(cc6F)c(N6CCC(=O)NC6=O)nn7C)CC5)CC4)cc3)nc2n1-c1ccc2c(n1)[C@](C)(O)CC2` [Compound 196] are at most 25 nM, under 100 nM and over 75%.
The corresponding values for `C=CCn1c(=O)c2cnc(Nc3ccc(N4CCN(CC5CCN(c6cc7c(cc6F)c(N6CCC(=O)NC6=O)nn7C)CC5)CC4)nc3)nc2n1-c1ccc2c(n1)[C@](C)(O)CC2` [Compound 197] are at most 25 nM, under 100 nM and over 75%.
On the same counts, the results for `CC(C)n1c(=O)c2cnc(Nc3ccc(N4CCN(CC5CCN(c6ccc(NC7CCC(=O)NC7=O)cc6F)CC5)CC4)cc3)nc2n1-c1cccc(C(C)(C)F)n1` (stereo not shown) [Compound 199] are 25 to 100 nM, under 100 nM and over 75%.
